Read-outs that look alike come from different tables or passages of the source.
Legend:
xanthine oxidase = target: T1, xanthine oxidase (Bos taurus, UniProt P80457); assay: Xanthine oxidase (XO) inhibitory assay; format: biochemical, Bovine; settings: read-out: XO inhibition (%)
T1 construct: purchased Roche Diagnostics (Mannheim, Germany)
Method: A total of 100 μL of test samples containing dimethyl sulfoxide (100 μg/mL) and 0.1 U/mL xanthine oxidase (100 µL) were added to a 0.05 M potassium phosphate buffer (1.3 mL, pH 7.5). The mixture was then incubated at 25 °C for 10 min. A 1 mL of 0.15 mM xanthine was added into the solution, then incubated at 30 °C for 10 min. […] The percentage of XO inhibition was calculated as follows: Inhibition (%)=Absorbancenegative control−Absorbancesample/Absorbancenegative control×100% Absorbancenegative control = Absorbance of the negative control (without inhibitors) Absorbancesample = Absorbance of the solution containing test samples

XO [1] = target: T2, XO (Bos taurus, UniProt P80457); assay: Circular dichroism (CD) analysis of XO secondary structure; set-up: species or system Bovine
T2 construct: purchased Roche Diagnostics (Mannheim, Germany)
T2 sequence (P80457 whole entry): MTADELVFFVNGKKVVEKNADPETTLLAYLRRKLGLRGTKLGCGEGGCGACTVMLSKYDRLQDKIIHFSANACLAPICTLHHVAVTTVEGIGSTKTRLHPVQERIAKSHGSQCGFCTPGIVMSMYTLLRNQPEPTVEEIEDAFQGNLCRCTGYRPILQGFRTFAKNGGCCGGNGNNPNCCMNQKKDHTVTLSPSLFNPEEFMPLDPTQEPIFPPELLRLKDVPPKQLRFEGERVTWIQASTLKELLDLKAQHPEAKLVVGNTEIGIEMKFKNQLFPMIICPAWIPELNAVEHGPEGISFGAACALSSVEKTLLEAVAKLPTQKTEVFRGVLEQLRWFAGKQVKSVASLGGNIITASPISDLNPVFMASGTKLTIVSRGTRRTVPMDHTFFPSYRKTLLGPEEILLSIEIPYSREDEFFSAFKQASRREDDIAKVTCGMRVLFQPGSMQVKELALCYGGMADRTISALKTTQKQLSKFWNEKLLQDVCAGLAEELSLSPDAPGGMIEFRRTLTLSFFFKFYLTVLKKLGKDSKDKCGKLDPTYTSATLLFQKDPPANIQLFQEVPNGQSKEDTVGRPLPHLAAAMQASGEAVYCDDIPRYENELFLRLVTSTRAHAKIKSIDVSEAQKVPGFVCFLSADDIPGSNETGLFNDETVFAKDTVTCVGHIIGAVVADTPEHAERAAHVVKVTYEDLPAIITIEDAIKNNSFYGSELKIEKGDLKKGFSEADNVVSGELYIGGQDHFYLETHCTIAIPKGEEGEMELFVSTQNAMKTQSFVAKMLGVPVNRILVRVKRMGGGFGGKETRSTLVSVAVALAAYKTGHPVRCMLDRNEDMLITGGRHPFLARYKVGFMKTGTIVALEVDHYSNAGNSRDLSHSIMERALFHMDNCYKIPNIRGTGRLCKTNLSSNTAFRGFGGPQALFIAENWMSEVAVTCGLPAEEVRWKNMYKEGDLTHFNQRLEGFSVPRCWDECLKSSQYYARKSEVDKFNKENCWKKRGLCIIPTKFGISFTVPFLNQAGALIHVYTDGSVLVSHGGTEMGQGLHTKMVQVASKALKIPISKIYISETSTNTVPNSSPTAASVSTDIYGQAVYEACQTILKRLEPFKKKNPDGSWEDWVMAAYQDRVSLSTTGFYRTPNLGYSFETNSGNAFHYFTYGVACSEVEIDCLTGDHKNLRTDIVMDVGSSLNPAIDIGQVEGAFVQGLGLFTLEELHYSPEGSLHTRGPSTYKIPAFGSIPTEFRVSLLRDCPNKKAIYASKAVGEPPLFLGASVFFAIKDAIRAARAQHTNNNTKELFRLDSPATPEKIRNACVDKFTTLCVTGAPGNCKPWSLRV
Method: The analysis was carried out according to a modified method. […] The measurement was performed in potassium phosphate buffer (pH 7.5) at room temperature. […] The JASCO SSE (Secondary Structure Estimation) software was used to analyze the CD spectroscopic data with Reed’s reference to obtain the data of various secondary structures of XO with respective ligands.

XO [2] = target: T2, XO; assay: Fluorescence quenching assay of XO; format: binding, Bovine; settings: pH 7.5; for Kd: Modified Stern-Volmer association constant Ka
Method: The assay was carried out by referring to a previous method with slight modifications. […] Titrations were performed manually and mixed carefully. […] The excitation wavelength was set at 280 nm, and the excitation and emission slits were 5 nm. The fluorescence background was corrected by subtracting the relevant blanks corresponding to the potassium phosphate buffer (pH 7.5).
To distinguish the mechanism of quenching various inhibitors on XO, the fluorescence quenching output was analyzed by applying the Stern-Volmer equation [34]: F0/F=1+KSV[Q]=1+Kqτ0[Q] where F0 and F represent the steady-state fluorescence intensities of XO in the absence and presence of the respective inhibitor. KSV is the Stern-Volmer quenching constant, determined from the slope of the linear regression of F0/F against the [Q] plot. [Q] represents the concentration of the inhibitor.
Then, Ka values for the inhibitor-XO complex at three different temperatures were calculated from the linear regression of F0/(F0 − F) against 1/[Q].

XO [3] = settings: cited from earlier work
[4] = at 100 μg/mL, mean ± SEM, n = 3
[5] = molar ratio XO:inhibitor 1:5, pH 7.5 (free XO 15.4)
[6] = molar ratio XO:inhibitor 1:5, pH 7.5 (free XO 19.7)
[7] = molar ratio XO:inhibitor 1:5, pH 7.5 (free XO 65.0)
[8] = molar ratio XO:inhibitor 1:10, pH 7.5 (free XO 15.4)
[9] = molar ratio XO:inhibitor 1:10, pH 7.5 (free XO 19.7)
[10] = molar ratio XO:inhibitor 1:10, pH 7.5 (free XO 65.0)
[11] = previous study, read-out: IC50 (XO inhibitory effect)

T1 sequence (P80457 whole entry): as above

inhibition at 100 µg/mL (xanthine oxidase; [4]) | SMILES | Random Coil (%) of XO (XO [1]; [5]) | α-Helix (%) of XO (XO [1]; [6]) | β-Sheet (%) of XO (XO [1]; [7]) | Random Coil (%) of XO (XO [1]; [8]) | α-Helix (%) of XO (XO [1]; [9]) | β-Sheet (%) of XO (XO [1]; [10]) | Quenching constant KSV (XO [2]; 298 K) | Quenching rate constant Kq (XO [2]; 298 K) | Quenching constant KSV (XO [2]; 304 K) | Quenching rate constant Kq (XO [2]; 304 K) | Quenching constant KSV (XO [2]; 310 K) | Quenching rate constant Kq (XO [2]; 310 K) | IC50 (XO [3]; [11]) | Kd (XO [2]; 298 K) | Kd (XO [2]; 304 K) | Kd (XO [2]; 310 K) | IC50 (XO [3]; ref 27 (Chang et al.), read-out: IC50 (XO inhibition)) | inhibition at 100 µg/mL (xanthine oxidase) | XO inhibitory potency (in words) (XO [3]; ref 28 (Mohos et al.))
81.9 ± 3.31% | O=c1c(O)c(-c2ccc(O)cc2)oc2cc(O)cc(O)c12 [Kaempferol, kaempferol] | 11.2% | 17.1% | 71.7% | 34.2% | 0.0% | 65.8% | 97700 L/mol | 3.489e+13 L/mol/s | 396400 L/mol | 1.416e+14 L/mol/s | 277900 L/mol | 9.925e+13 L/mol/s | 2.18 ± 0.02 µM |  |  |  |  |  | 
56.6 ± 1.77% | O=c1cc(-c2ccc(O)cc2)oc2cc(O)cc(O)c12 [Apigenin, apigenin] | 22.2% | 10.8% | 67.0% | 0.0% | 36.7% | 63.3% | 130200 L/mol | 4.65e+13 L/mol/s | 332400 L/mol | 1.187e+14 L/mol/s | 182100 L/mol | 6.504e+13 L/mol/s | 3.2 µM | 5.33 µM | 3.5 µM | 4.3 µM |  |  | 
 | Oc1ncnc2[nH]ncc12 [Allopurinol, allopurinol, reference compound] |  |  |  |  |  |  |  |  |  |  |  |  |  |  |  |  |  | 96.5 ± 2.4% | 
 | COc1cc(CC(=O)O)ccc1O [Homovanillic acid, homovanillic acid] | 0.0% | 36.3% | 63.7% | 27.0% | 5.1% | 67.9% | 49100 L/mol | 1.754e+13 L/mol/s | 93100 L/mol | 3.325e+13 L/mol/s | 698800 L/mol | 2.4957e+14 L/mol/s |  | 5.61 µM | 2.67 µM | 4.15 µM |  | 30 ± 2.18% | less potent inhibitor of XO

SMILES | inhibition at 100 µg/mL (xanthine oxidase; [4]) | Random Coil (%) of XO (XO [1]; [5]) | α-Helix (%) of XO (XO [1]; [6]) | β-Sheet (%) of XO (XO [1]; [7]) | Random Coil (%) of XO (XO [1]; [8]) | α-Helix (%) of XO (XO [1]; [9]) | β-Sheet (%) of XO (XO [1]; [10]) | Quenching constant KSV (XO [2]; 298 K) | Quenching rate constant Kq (XO [2]; 298 K) | Quenching constant KSV (XO [2]; 304 K) | Quenching rate constant Kq (XO [2]; 304 K) | Quenching constant KSV (XO [2]; 310 K) | Quenching rate constant Kq (XO [2]; 310 K) | IC50 (XO [3]; [11]) | Kd (XO [2]; 298 K) | Kd (XO [2]; 304 K) | Kd (XO [2]; 310 K) | IC50 (XO [3]; ref 27 (Chang et al.), read-out: IC50 (XO inhibition)) | inhibition at 100 µg/mL (xanthine oxidase) | XO inhibitory potency (in words) (XO [3]; ref 28 (Mohos et al.))
O=C(O)/C=C/c1ccccc1 [Trans-cinnamic acid, trans-cinnamic acid] | 57.6 ± 6% | 0.0% | 36.4% | 63.6% | 22.7% | 10.4% | 66.9% | 180000 L/mol | 6.429e+13 L/mol/s | 282300 L/mol | 1.008e+14 L/mol/s | 278400 L/mol | 9.943e+13 L/mol/s |  | 8.02 µM | 3.62 µM | 3.49 µM | > 200 µM |  | 
